{"source": "patent US5916908A", "about": "“Pharmaceutical pyrazole compositions useful as inhibitors of protein kinases” (COR Therapeutics, Inc., priority 1995, dated 1999)", "key": {"src-kinase": {"biological_target": "src-kinase (Homo sapiens, UniProt P12931)", "sequence (P12931 whole entry)": "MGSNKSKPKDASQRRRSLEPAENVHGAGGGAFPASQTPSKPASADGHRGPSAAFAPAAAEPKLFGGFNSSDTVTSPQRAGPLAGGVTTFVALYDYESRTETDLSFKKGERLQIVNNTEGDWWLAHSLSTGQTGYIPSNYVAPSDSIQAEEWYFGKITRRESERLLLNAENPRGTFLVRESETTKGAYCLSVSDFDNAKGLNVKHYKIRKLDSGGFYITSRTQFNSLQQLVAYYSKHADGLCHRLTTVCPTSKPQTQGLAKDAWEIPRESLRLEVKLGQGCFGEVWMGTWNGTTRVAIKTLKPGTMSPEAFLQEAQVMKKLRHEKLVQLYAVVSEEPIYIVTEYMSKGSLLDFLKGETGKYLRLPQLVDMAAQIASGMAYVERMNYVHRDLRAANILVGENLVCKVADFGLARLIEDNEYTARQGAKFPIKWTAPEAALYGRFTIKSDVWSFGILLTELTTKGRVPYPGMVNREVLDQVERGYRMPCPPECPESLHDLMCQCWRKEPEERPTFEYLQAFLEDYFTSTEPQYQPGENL", "experiment": "inhibition of recombinant c-src kinase", "conditions": "for potency on src kinase activity compared with PDGFR kinase activity: src vs PDGFR"}, "32D-αR cells": {"test_system": "32D-αR cells", "experiment": "PDGF induced proliferation ([3H]thymidine incorporation) in 32D-αR cells", "type": "cell-based", "conditions": "Mus musculus", "procedure": "Briefly, 32D-αR cells were grown in interleukin 3 (IL-3)-conditioned RPMI media with 10% fetal bovine serum and washed 2 times with RPMI with 10% fetal bovine serum, resuspended at 5×10^5 cells/ml in the same media and then dispensed at 250 μl/well in 24 well plates (Falcon). […] The cells were incubated for 43 hours followed for a further 3 hour incubation with [^3 H]thymidine (10 μCi/well). The cells are then harvested with an automated cell harvester, filters are placed in liquid scintillation mixture and counted in a β counter."}, "HR5-βR cells": {"test_system": "HR5-βR cells", "experiment": "inhibition of cell proliferation under normal tissue culture conditions, HR5-βR", "conditions": "for IC50: Cricetulus griseus", "description": "The effect of these compounds on normal cell growth was also evaluated with HR5-βR cells which were previously used to measure beta PDGFR autophosphorylation."}, "human beta PDGFR": {"biological_target": "human beta PDGFR (Homo sapiens, UniProt P09619)", "sequence (P09619 33-1106)": "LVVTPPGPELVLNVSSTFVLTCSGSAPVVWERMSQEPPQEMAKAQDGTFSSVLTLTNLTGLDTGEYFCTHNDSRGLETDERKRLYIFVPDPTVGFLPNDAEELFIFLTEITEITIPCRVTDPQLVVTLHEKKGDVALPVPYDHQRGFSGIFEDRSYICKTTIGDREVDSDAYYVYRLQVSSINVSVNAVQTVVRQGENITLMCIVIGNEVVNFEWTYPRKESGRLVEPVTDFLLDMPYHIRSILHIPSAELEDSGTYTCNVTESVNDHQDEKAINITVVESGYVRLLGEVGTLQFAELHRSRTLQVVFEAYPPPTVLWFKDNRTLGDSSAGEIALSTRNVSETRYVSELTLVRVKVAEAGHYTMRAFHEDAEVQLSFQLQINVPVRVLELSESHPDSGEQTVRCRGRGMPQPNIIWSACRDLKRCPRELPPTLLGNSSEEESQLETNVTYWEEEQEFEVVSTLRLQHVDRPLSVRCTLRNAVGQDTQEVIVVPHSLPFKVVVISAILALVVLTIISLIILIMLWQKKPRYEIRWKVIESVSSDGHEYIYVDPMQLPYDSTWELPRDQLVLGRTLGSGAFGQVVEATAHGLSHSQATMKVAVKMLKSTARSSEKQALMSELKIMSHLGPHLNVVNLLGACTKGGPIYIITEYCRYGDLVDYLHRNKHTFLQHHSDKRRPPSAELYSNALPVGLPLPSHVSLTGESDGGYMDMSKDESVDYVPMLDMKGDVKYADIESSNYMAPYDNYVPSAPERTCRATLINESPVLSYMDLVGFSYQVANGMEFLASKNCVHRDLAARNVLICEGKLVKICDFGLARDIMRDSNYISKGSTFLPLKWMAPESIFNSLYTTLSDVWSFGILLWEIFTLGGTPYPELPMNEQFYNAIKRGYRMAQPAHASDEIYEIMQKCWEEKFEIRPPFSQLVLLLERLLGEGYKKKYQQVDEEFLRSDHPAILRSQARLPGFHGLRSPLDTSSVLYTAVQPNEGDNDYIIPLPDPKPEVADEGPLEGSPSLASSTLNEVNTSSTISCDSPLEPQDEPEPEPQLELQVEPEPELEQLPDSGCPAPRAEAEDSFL", "experiment": "beta PDGFR autophosphorylation in HR5-βR cells", "conditions": "for inhibition of protein kinase activity of βPDGFR: compounds of Table 1B, evaluated similar to Example 1"}, "HS27 cells": {"test_system": "HS27 cells", "experiment": "inhibition of cell proliferation under normal tissue culture conditions, HS27", "conditions": "Homo sapiens, HS27, 96 h, read-out: IC50 HS27"}, "HS68 cells": {"test_system": "HS68 cells", "experiment": "inhibition of cell proliferation under normal tissue culture conditions, HS68", "conditions": "Homo sapiens, Hs68, 96 h, read-out: IC50 HS68"}, "Protein Kinase C (PKC)": {"test_system": "Protein Kinase C (PKC)", "experiment": "Protein Kinase C assay (non-radioactive)", "conditions": "40 μM"}, "human alpha PDGFR": {"biological_target": "T1, human alpha PDGFR (Homo sapiens, UniProt P16234)", "T1 construct": "expressed in transfected cells; host or cells: 32D-αR (mouse hematopoietic cell line 32D)", "T1 sequence (P16234 24-1089)": "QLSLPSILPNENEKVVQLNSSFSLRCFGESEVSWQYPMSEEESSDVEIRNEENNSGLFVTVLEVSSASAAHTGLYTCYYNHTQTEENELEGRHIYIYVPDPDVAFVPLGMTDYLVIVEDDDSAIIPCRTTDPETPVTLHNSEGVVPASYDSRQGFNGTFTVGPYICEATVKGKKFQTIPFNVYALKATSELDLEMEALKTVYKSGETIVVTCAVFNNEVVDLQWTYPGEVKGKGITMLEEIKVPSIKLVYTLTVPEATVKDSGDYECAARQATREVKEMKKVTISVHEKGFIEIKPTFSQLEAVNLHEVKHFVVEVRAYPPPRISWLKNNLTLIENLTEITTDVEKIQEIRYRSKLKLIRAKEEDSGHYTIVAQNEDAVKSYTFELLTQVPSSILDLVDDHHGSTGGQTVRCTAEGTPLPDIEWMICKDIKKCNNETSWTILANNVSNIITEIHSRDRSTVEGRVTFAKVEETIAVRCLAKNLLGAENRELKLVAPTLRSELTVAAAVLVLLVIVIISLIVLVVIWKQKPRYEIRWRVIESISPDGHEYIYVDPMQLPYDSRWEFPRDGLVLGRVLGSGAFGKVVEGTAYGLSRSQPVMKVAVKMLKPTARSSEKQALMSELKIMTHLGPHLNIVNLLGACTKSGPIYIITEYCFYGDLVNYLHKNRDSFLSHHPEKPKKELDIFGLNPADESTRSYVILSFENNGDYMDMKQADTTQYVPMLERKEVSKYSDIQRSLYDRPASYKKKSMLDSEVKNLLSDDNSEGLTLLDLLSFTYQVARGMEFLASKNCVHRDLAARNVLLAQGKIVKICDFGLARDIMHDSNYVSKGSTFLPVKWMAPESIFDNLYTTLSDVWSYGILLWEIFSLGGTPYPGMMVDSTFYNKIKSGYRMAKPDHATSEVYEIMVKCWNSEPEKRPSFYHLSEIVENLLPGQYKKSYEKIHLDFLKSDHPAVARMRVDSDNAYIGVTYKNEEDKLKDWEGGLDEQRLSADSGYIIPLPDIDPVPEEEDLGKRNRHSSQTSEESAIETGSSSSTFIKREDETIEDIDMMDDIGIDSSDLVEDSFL", "experiment": "alpha PDGFR autophosphorylation in 32D-αR cells", "type": "cell-based", "conditions": "for inhibition of protein kinase activity of αPDGFR: compounds of Table 1B, evaluated similar to Example 1", "source_text": "The stimulation of cell proliferation by growth factors such as PDGF, FGF and EGF is dependent upon their induction of autophosphorylation of each of their respective receptor's tyrosine kinases. Therefore, the ability of a PTK inhibitor to block cellular proliferation induced by these growth factors is directly correlated with its ability to block receptor autophosphorylation. To measure alpha PDGFR autophosphorylation a previously described mouse hematopoietic cell line, 32D-αR, which had been engineered to overexpresses the human alpha PDGFR was used. These cells were grown in suspension to 10^6 cells/ml in RPMI (Gibco BRL) media containing 10% fetal bovine serum and 5% WEHI conditioned media (tissue culture media conditioned by WEHI cells available from ATCC) as previously described. The cells were pelleted by low speed centrifugation and resuspended in serum-free RPMI prior to distribution at 500,000 cells/well in 96 well conical bottom microtiter plates (Falcon). Compounds (0.01-30 μM) were added to the wells at room temperature 15 minutes prior to the addition of PDGF AA (15 ng/ml) and the incubation was continued on ice for 90 minutes in a final incubation volume of 100 μl. The cells were then pelleted at 2000 rpm for 10 minutes at 4° C. and 50 μl of freshly prepared lysis buffer (20 mM Tris at pH 7.3, 150 mM NaCl, 1% Triton X-100, 1 mM phenylmethyl-sulfonyl fluoride (PMSF), 1 mM sodium orthovanadate, […] and 10 mg/ml leupeptin) was added directly to each well, incubation was continued for 10 minutes on ice and cell lysis was facilitated by vigorous agitation on a plate shaker. The cell lysates were cleared by centrifugation at 2,000 rpm for 10 minutes prior to analysis.\nIn a separate microtiter plate, monoclonal antibodies (prepared at COR Therapeutics, Inc.) directed against the extracellular domain of the alpha PDGFR (MAb αR10) or the beta PDGFR (MAb 1B5B11) were immobilized by incubating 0.5 μg of antibody per well at 4° C. for 18 hours in 23 mM Tris at pH 8.0, 68 mM NaCl, 14 mM ammonium bicarbonate and 0.01% sodium azide. Unbound antibody was removed and the wells were blocked with 25 mM N-(2-hydroxyethyl)piperazine-N'-(2-ethanesulfonic acid) (HEPES) pH 7.6, 100 mM NaCl, and 0.2% Tween 20 just prior to the addition of cell lysate that had been diluted 1:2 in binding buffer (blocking buffer with 0.3% gelatin). 32D-αR or HR5-βR cell lysate was incubated with immobilized MAb αR10 or MAb 1B5B11, respectively, for 2 hours at room temperature and wells were washed 3 times with 200 μl of wash buffer (phosphate buffered saline \"PBS\", 0.01% Tween 20). […] Product formation was monitored at 650 nm using a microtiter plate reader (Molecular Devices)."}, "CCD18 cells": {"test_system": "CCD18 cells", "experiment": "inhibition of cell proliferation under normal tissue culture conditions, CCD18", "type": "cell-based", "conditions": "Homo sapiens, 96 h, read-out: IC50 CCD18"}, "WS1 cells": {"test_system": "WS1 cells", "experiment": "inhibition of cell proliferation under normal tissue culture conditions, WS1", "conditions": "Homo sapiens, WS1, 96 h, read-out: IC50 WS1"}, "[1]": {"test_system": "human cell lines (HS68, HS 27, CCD18, WS1)", "experiment": "inhibition of proliferation of human cell lines under standard tissue culture conditions (collective statement)"}, "Protein Kinase A (PKA)": {"biological_target": "Protein Kinase A (PKA) (Homo sapiens, UniProt P17612)", "experiment": "Protein Kinase A assay (non-radioactive)"}, "human FGFR-1": {"biological_target": "T2, human FGFR-1 (Homo sapiens, UniProt P11362)", "T2 construct": "expressed in transfected cells; host or cells: CHO", "T2 sequence (P11362 22-822)": "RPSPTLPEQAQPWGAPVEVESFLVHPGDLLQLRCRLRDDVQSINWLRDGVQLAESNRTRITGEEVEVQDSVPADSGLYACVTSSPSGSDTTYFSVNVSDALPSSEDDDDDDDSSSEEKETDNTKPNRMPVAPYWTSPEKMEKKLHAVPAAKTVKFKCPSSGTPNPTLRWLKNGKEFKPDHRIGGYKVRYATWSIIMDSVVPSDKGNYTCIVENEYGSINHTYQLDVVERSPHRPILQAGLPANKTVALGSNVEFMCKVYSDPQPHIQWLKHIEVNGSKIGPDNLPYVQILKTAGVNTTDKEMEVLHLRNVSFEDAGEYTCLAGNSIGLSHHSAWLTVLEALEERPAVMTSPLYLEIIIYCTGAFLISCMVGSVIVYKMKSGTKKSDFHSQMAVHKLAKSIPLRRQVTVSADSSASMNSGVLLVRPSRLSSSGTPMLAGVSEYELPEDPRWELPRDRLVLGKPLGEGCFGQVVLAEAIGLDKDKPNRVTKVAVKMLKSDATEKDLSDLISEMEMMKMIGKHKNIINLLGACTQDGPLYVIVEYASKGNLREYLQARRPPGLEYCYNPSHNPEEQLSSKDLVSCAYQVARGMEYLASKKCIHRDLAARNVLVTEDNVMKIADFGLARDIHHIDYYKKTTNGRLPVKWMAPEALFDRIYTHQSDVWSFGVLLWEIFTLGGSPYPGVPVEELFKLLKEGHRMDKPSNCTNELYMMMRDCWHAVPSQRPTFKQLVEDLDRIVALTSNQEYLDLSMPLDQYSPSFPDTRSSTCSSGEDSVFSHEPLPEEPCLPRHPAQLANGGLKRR", "experiment": "FGFR-1 autophosphorylation in CHO cells", "type": "cell-based", "procedure": "In order to measure FGFR-1 autophosphorylation, the human FGFR-1 cDNA was stably over-expressed in CHO cells using standard techniques. These cells were grown to confluency in RPMI with 10% fetal bovine serum, the media was replaced with serum-free RPMI and incubation continued for 18 hours prior to stimulation with βFGF (75 ng/ml) for 10 min. at 37° C. in the absence or presence of PTK inhibitors in a concentration range of 0.1-30 μM. Cell lysates were prepared under the same conditions as described above for the EGFR assay. Lysates were incubated with a monoclonal antibody directed against the FGFR-1 extracellular domain (MAb 1H9D3 which was prepared at COR) and the immunoprecipitated receptor was subjected to SDS-PAGE and Western blot analysis with 4G10 horse radish peroxidase conjugated antiphosphotyrosine antibodies (UBI) and detection was done by chemiluminescence (Amersham)."}, "EGFR": {"biological_target": "EGFR (Homo sapiens, UniProt P00533)", "sequence (P00533 25-1210)": "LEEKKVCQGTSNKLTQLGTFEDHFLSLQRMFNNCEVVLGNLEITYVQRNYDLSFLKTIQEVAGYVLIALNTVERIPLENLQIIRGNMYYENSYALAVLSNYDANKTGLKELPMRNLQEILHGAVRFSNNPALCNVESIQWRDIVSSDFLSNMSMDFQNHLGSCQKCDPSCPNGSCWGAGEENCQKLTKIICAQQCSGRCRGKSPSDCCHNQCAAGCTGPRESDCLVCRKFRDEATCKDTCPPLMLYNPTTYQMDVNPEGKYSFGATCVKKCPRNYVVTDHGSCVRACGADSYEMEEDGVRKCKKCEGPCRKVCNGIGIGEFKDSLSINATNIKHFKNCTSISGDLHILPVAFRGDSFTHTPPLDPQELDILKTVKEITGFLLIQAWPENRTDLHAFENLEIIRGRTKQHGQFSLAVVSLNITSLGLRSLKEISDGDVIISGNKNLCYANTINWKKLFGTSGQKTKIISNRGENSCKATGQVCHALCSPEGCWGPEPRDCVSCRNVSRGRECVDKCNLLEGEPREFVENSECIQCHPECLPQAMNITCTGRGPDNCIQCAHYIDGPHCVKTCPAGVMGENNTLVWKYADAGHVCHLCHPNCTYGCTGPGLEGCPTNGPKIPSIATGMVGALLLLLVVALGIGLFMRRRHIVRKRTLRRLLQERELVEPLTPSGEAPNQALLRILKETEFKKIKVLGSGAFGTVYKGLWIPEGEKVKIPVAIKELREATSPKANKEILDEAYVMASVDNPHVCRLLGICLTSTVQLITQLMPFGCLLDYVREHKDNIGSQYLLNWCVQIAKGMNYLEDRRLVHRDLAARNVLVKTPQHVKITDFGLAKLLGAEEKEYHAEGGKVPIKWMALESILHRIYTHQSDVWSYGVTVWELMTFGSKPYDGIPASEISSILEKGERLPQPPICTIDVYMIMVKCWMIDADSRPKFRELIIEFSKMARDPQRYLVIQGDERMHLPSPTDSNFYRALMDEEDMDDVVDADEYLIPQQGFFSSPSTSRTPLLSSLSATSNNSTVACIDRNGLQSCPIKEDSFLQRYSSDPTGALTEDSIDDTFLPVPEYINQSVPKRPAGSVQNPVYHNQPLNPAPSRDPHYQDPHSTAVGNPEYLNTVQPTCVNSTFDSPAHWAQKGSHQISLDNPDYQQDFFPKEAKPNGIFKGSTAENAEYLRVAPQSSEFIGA", "experiment": "EGFR autophosphorylation in MDA MB 468 cells", "type": "cell-based", "conditions": "EGF 100 ng/ml", "description": "These cells were grown to confluency in 6-well plates and incubated in serum-free Dulbecco's Modified Eagle Medium (DMEM) 18 hours. The cells were exposed to various concentrations (0.01-30 μM) of compounds for 15 minutes and then to EGF (100 ng/ml) for 10 minutes at 37° C. The cells were scraped and lysates were prepared in the same buffer as described for 32D-αR cells prior to fractionation by conventional SDS PAGE followed by Western blot analysis. For this, proteins were transferred onto nitrocellulose and the membrane was blocked in Tris buffer saline (TBS), pH 7.0, 0.1% Tween 20, 5% dry milk. The membrane was blotted with anti-phosphotyrosine antibody (UBI, 1 μg/ml) in binding buffer (TBS, 0.1% Tween 20; 1% dry milk) for 2 hours at room temperature. Detection was performed using a goat anti-rabbit-horseradish peroxidase conjugated IgG (Boehringer Mannheim). The blot was developed using a chemiluminescent system (Amersham)."}}, "note": "Like-named read-outs stand apart in the source and are kept apart here."}
{"compound": "O=C(Nc1cc(-c2ccccc2)[nH]n1)c1ccccc1", "note": "[Compound 1, 3-benzoylamino-5-phenylpyrazole]", "values": [{"measurement": "IC50", "setting": "src-kinase", "result": 8000, "unit": "nM"}, {"measurement": "potency on src kinase activity compared with PDGFR kinase activity", "setting": "src-kinase", "result": "selective for inhibiting PDGFR kinase activity"}, {"measurement": "IC50", "setting": "32D-αR cells; read-out: concentration blocking PDGF induced thymidine incorporation by 50%", "result": 700, "unit": "nM"}, {"measurement": "IC100", "setting": "32D-αR cells; PDGF AA 30 ng/ml, FIG. 2, read-out: concentrations at which mitogenicity was completely inhibited", "result": "> 1", "unit": "µM"}, {"measurement": "IC50", "setting": "HR5-βR cells; 96 h, read-out: IC50 HRS-βR", "result": 28000, "unit": "nM"}, {"measurement": "IC50", "setting": "human beta PDGFR", "result": 220, "unit": "nM"}, {"measurement": "IC (maximal)", "setting": "human beta PDGFR; read-out: concentration at which inhibition of beta PDGFR autophosphorylation was maximal", "result": 5, "unit": "µM"}, {"measurement": "IC50", "setting": "HS27 cells", "result": "> 30000", "unit": "nM"}, {"measurement": "IC50", "setting": "HS68 cells", "result": "> 30000", "unit": "nM"}, {"measurement": "reduction in PKC activity", "setting": "Protein Kinase C (PKC)", "result": "< 50", "unit": "%"}, {"measurement": "IC50", "setting": "human alpha PDGFR; Table 2, autophosphorylation, 32D-αR cells, PDGF AA 15 ng/ml, read-out: IC50 αPDGFR", "result": 170, "unit": "nM"}, {"measurement": "inhibition of alpha PDGFR autophosphorylation", "setting": "human alpha PDGFR; compared with beta receptor", "result": "inhibit alpha PDGFR autophosphorylation over the same concentration range as that observed for the beta receptor"}, {"measurement": "IC50", "setting": "CCD18 cells", "result": "> 30000", "unit": "nM"}, {"measurement": "IC50", "setting": "WS1 cells", "result": "> 30000", "unit": "nM"}, {"measurement": "inhibition at 30 µM", "setting": "[1]; Homo sapiens, 96 h, read-out: decrease in cell growth of human cell lines", "result": "10 to 20", "unit": "%"}, {"measurement": "decrease in cell growth of human cell lines", "setting": "[1]; concentrations up to 10 μM", "result": "no decrease in cell growth"}, {"measurement": "IC50", "setting": "Protein Kinase A (PKA)", "result": "> 40000", "unit": "nM"}, {"measurement": "inhibition at 40 µM", "setting": "Protein Kinase A (PKA); read-out: reduction in PKA activity", "result": "< 50", "unit": "%"}, {"measurement": "IC50", "setting": "human FGFR-1; Table 2, autophosphorylation, CHO cells, βFGF 75 ng/ml", "result": "> 30000", "unit": "nM"}, {"measurement": "inhibition of FGFR-1 autophosphorylation", "setting": "human FGFR-1; concentrations as high as 30 μM", "result": "no detectable inhibition"}]}
{"compound": "O=C(Nc1cc(-c2ccc(Cl)cc2)n[nH]1)c1ccccc1", "note": "[Compound 45]", "values": [{"measurement": "inhibition of protein kinase activity of βPDGFR", "setting": "human beta PDGFR", "result": "exhibited the best activities"}, {"measurement": "inhibition of protein kinase activity of αPDGFR", "setting": "human alpha PDGFR", "result": "exhibited the best activities"}]}
{"compound": "O=C(Nc1cc(-c2cccs2)n[nH]1)c1ccccc1", "note": "[Compound 46]", "values": [{"measurement": "inhibition of protein kinase activity of βPDGFR", "setting": "human beta PDGFR", "result": "exhibited the best activities"}, {"measurement": "inhibition of protein kinase activity of αPDGFR", "setting": "human alpha PDGFR", "result": "exhibited the best activities"}]}
{"compound": "COC(=O)[C@@]1(O)C[C@H]2O[C@]1(C)n1c3ccccc3c3c4c(c5c6ccccc6n2c5c31)C(=O)NC4", "note": "[Compound K252a]", "values": [{"measurement": "IC50", "setting": "src-kinase; read-out: IC50 src-kinase, recombinant c-src, 50 μM ATP", "result": 20, "unit": "nM"}, {"measurement": "IC50", "setting": "src-kinase; read-out: src kinase IC50, recombinant c-src", "result": 20, "unit": "nM"}, {"measurement": "potency on src kinase activity compared with PDGFR kinase activity", "setting": "src-kinase", "result": "equally or more potent at inhibiting src kinase activity as they are PDGFR kinase activity"}, {"measurement": "IC50", "setting": "EGFR", "result": 1000, "unit": "nM"}, {"measurement": "HR5-βR growth inhibition compared with inhibition of PDGFR phosphorylation", "setting": "HR5-βR cells", "result": "lower concentrations than those required to inhibit PDGFR phosphorylation"}, {"measurement": "IC50", "setting": "HR5-βR cells; 96 h, read-out: IC50 HRS-βR", "result": 130, "unit": "nM"}, {"measurement": "IC50", "setting": "HR5-βR cells; read-out: IC50 HR5-βR cell growth", "result": 130, "unit": "nM"}]}
{"compound": "CN[C@@H]1C[C@H]2O[C@@](C)([C@@H]1OC)n1c3ccccc3c3c4c(c5c6ccccc6n2c5c31)C(=O)NC4", "note": "[Staurosporin, reference compound]", "values": [{"measurement": "potency on src kinase activity compared with PDGFR kinase activity", "setting": "src-kinase", "result": "equally or more potent at inhibiting src kinase activity as they are PDGFR kinase activity"}, {"measurement": "growth of all of the human cell lines", "setting": "[1]; 0.01 μM", "result": "completely blocked"}]}
